Experimental data reported in publication PMC7957705 (Molecules, 2021).
Like-named read-outs stand apart in the source and are kept apart here. Where a SMILES comes first, the peptide text is derived from it. Bridges are numbered along the chain shown (N, C = ends). Triazole bridges read from a SMILES are 1,4-linked. Where no end group is shown, it is not given here. [ ]: non-standard residue; d: D form. The star is where a group is joined. Benzoyl(4-guanidino) = N=C(N)Nc1ccc(C(=O)*)cc1; Gua = N-terminal guanidino group, N=C(N)*; Pro(4S-NH2) = N[C@@H]1CN[C@H](C(=O)O)C1; Orn(N3) = [N-]=[N+]=NCCC[C@H](N)C(=O)O; Aha = [N-]=[N+]=NCC[C@H](N)C(=O)O; Cav = NC(N)=NOCC[C@H](N)C(=O)O; Hpra = C#CCC[C@H](N)C(=O)O; hCys = N[C@@H](CCS)C(=O)O; Orn = NCCC[C@H](N)C(=O)O; Pra = C#CC[C@H](N)C(=O)O

Legend:
[1] = type: in vitro ADME; conditions: plasma
Procedure: Plasmas from 3 species (including commercially available human healthy donors) were adjusted to pH 7.4 if necessary. Incubations were performed at a concentration of 1 µM of the compound at 37 °C (in the presence of a final concentration of DMSO of 2.5% v/v. The incubations were stopped at 0, 15, 30, 60 and 120 min by methanol. Each time point was run in sextuplets. The sampling plates were then centrifuged (2500 rpm, 45 min, 4 °C) and the supernatants pooled. Samples were analyzed for parent compound by LC-MS/MS. The percentage of parent compound remaining at each time point relative to the 0 min sample is then calculated from LC-MS/MS peak area ratios. Then, the stability in plasma was evaluated by incubating human, rat or mouse plasma with the compound(s) as follows: the product (0.1 µM in TRIS buffer pH 7.4 0.1% BSA) was incubated with the plasma at 37 °C. The disappearance of the product was measured at 15, 45, 120, 240 and 300 min by mass spectrometry. Incubations were carried out in a robot Star (Hamilton France, Villebon-sur-Yvette, France). At each sampling time, 50 µL of the reaction medium was removed and diluted with 100 µL of acetonitrile. After centrifugation (20 min at + 4 °C, 4000 rpm), 75 µL of the supernatants was transferred into a 384 well injection plate. Ten microliters were injected onto UPLC coupled with a XEVO TQS mass spectrometer system (Waters, Milford, MA, USA). The unchanged product is quantified using a reference sample (0.1 µM) prepared during the incubation process. A second reference sample at 0.01 µM is prepared in the same conditions to verify the linearity of the detection method. The peak height (or area) is measured to calculate the half-life of the compound.

[2] = molecular target: T1, human MCH-R1 (Homo sapiens, UniProt Q99705); assay: MCH-induced cytosolic Ca2+ ion mobilization, antagonist effect; type: cell-based; conditions: antagonism of MCH-induced cytosolic Ca2+ mobilization; read-out: Ki (functionality, antagonism at MCH-R1)
T1 construct: expressed in transfected cells
T1 sequence (Q99705 whole entry): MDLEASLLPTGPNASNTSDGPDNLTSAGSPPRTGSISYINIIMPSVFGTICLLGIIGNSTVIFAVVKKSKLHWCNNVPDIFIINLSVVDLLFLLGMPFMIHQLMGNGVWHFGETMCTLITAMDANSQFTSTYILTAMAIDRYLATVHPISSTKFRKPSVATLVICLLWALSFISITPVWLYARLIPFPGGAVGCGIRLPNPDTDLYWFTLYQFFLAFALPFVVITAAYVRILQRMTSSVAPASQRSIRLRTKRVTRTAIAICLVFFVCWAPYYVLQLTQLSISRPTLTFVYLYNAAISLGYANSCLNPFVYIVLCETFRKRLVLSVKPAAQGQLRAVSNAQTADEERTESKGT
Procedure: The functional assay was run onto cells expressing the hMCH-R1 receptor, as described in Wang et al.. In brief, the cells are suspended in DMEM buffer (Invitrogen), then distributed in microplates at a density of 4.104 cells/well. The fluorescent probe (Fluo4 Direct, Invitrogen) mixed with probenecid in Hanks’ Balanced Salt solution (HBSS) (Invitrogen) complemented with 20 mM HEPES (Invitrogen) (pH 7.4) is then added into each well and equilibrated with the cells for 60 min at 37 °C, then 15 min at 22 °C. Then, the assay plates are positioned in a microplate reader (CellLux, PerkinElmer) which is used for the addition of the test compound, reference agonist or HBSS buffer (basal control), and the measurements of changes in fluorescence intensity, which varies proportionally to the free cytosolic Ca^2+ ion concentration. For stimulated control measurements, MCH at 300 nM is added in separate assay wells. The results are expressed as a percentage of the control response to 300 nM MCH. The standard reference agonist is MCH, which is tested in each experiment at several concentrations to generate a concentration-response curve from which its EC50 value is calculated. For the antagonist effect, the results are expressed as a percentage inhibition of the control response to 30 nM MCH, which was added to all tested wells and controls 5 min after the candidate products.

[3] = molecular target: T1, human MCH-R1; assay: Binding displacement of [125I]-[Phe13,Tyr19]-MCH at membranes expressing human MCH-R1; conditions: Table 1, S-S bridge pseudopeptides; 2 × 2 independent duplicates; read-out: Km
Procedure: Stable cell lines were obligatory for all receptor programs. We cloned the human receptor and established the cell line as previously described. In brief, HEK293 (HEK) cells were grown in Dulbecco’s Modified Eagle medium (DMEM) supplemented with 10% fetal calf serum, 2 mM glutamine, 100 IU/mL penicillin and […] streptomycin. They were seeded at 5 × 10^6 cells in T75 cm^2 culture flasks. One day later, they were transfected with […] of the pcDNA3.1 (Invitrogen, Groningen, The Netherlands) containing the human MCH-R1 using lipofectamine (Life Technologies, Cergy Pontoise, France), as previously described. One day later, cells were trypsinized, resuspended in a complete DMEM medium containing […] of geneticin and seeded at different dilutions in 96-well plates which were kept for 2 to 3 weeks in a humidified CO2 incubator. At the end of the selection period, isolated clones were picked up, amplified, and further characterized by cyclic AMP experiments. For each cell line, one positive clone was subcloned before being used for all of the cyclic AMP, [^35S]-GTPγS and receptor binding experiments necessary to characterize them. The stable HEK293 cell line expressing the human MCH-R1 was HEK-hMCH-R1.
Membrane preparations were classically made as previously described. In brief, the HEK-hMCH-R cell line was grown to confluency, harvested in PBS buffer containing 2 mM EDTA and centrifuged at 10,000× g for 5 min (4°C). The resulting pellet was suspended in 20 mM Hepes buffer (pH 7.5), containing 5 mM EGTA and homogenized using a Kinematica polytron. The homogenate was then centrifuged (95,000× g, 30 min, 4 °C) and the resulting pellet was suspended in 50 mM HEPES buffer (pH 7.5), containing 10 mM MgCl2 and 2 mM EGTA. Aliquots of membrane preparations were stored at −80 °C until use. Binding has been described in numerous publications and the test was based on Mac Donald et al.’s description. […] Nonspecific binding is determined in the presence of 0.1 μM MCH. […] The filters are dried and then counted for radioactivity in a scintillation counter (Topcount, Packard) using a scintillation cocktail (Microscint 0, Packard). The results are expressed as percentage inhibition of the control radioligand specific binding. The standard reference compound is MCH, which was tested in each experiment at 8 concentrations to obtain a competition curve from which its IC50 is calculated. The high level of assay robustness and reproducibility of each control monitored over several decades (internal data base, Eurofins) and included in every assay ensure results’ reliability even when performed only twice. […]

[4] = human plasma; conditions: 37 °C, up to 300 min

## CSCC[C@@H]1NC(=O)[C@@H](NC(=O)c2ccc(NC(=N)N)cc2)CCC(=O)NCCC[C@@H](C(=O)N[C@@H](Cc2c[nH]c3ccccc23)C(=O)O)NC(=O)[C@@H]2CCCN2C(=O)[C@H](CCCNC(=N)N)NC(=O)[C@H](C(C)C)NC(=O)[C@H](CCCNC(=N)N)NC(=O)[C@H](CC(C)C)NC1=O [GPS12744] ({Benzoyl(4-guanidino)}-EMLRVRP[Orn]W-OH; lactam 1-8)
[1]; human
  half-life: ≥ 300 min
[1]; mouse
  half-life: 26 ± 3 min
[1]; rat
  half-life: 143 ± 12 min

## CCSCC[C@@H]1NC(=O)[C@@H](NC(=O)c2ccc(NC(=N)N)cc2)CCC(=O)NCCC[C@@H](C(=O)N[C@@H](Cc2c[nH]c3ccccc23)C(=O)O)NC(=O)[C@@H]2CCCN2C(=O)[C@H](CCCNC(=N)N)NC(=O)[C@H](C(C)C)NC(=O)[C@H](CCCNC(=N)N)NC(=O)[C@H](CC(C)C)NC1=O [GPS13663] ({Benzoyl(4-guanidino)}-E[hCys](Et)LRVRP[Orn]W-OH; lactam 1-8)
[1]; human
  half-life: ≥ 300 min
[1]; mouse
  half-life: 19 ± 1 min
[1]; rat
  half-life: 94 ± 3 min

## CSCC[C@H](NC(=O)[C@H](CCC(=O)O)NC(=O)c1ccc(NC(=N)N)cc1)C(=O)N[C@@H](CC(C)C)C(=O)N[C@@H](CCCNC(=N)N)C(=O)N[C@H](C(=O)N[C@@H](CCCNC(=N)N)C(=O)N1CCC[C@H]1C(=O)N[C@@H](CCCN)C(=O)N[C@@H](Cc1c[nH]c2ccccc12)C(=O)O)C(C)C [GPS13669] ({Benzoyl(4-guanidino)}-EMLRVRP[Orn]W-OH)
[2]
  Ki: 300 nM

## CCSCC[C@@H]1NC(=O)[C@@H](NC(=O)c2ccc(NC(=N)N)cc2)Cc2cn(nn2)CC[C@@H](C(=O)N[C@@H](Cc2c[nH]c3ccccc23)C(=O)O)NC(=O)[C@@H]2CCCN2C(=O)[C@H](CCCNC(=N)N)NC(=O)[C@H](C(C)C)NC(=O)[C@H](CCCNC(=N)N)NC(=O)[C@H](CC(C)C)NC1=O [GPS13671] ({Benzoyl(4-guanidino)}-[Pra][hCys](Et)LRVRP[Aha]W-OH; triazole 1-8)
[2]
  Ki: 8 nM

## CSCC[C@@H]1NC(=O)[C@@H](NC(=O)c2ccc(NC(=N)N)cc2)CCC(=O)NCCC[C@@H](C(=O)N[C@@H](Cc2c[nH]c3ccccc23)C(=O)O)NC(=O)[C@@H]2CCCN2C(=O)[C@H](CCON=C(N)N)NC(=O)[C@H](C(C)C)NC(=O)[C@H](CCCNC(=N)N)NC(=O)[C@H](CC(C)C)NC1=O [GPS13683] ({Benzoyl(4-guanidino)}-EMLRV[Cav]P[Orn]W-OH; lactam 1-8)
[2]
  Ki: 0.15 nM

## CSCC[C@@H]1NC(=O)[C@@H](NC(=O)c2ccc(NC(=N)N)cc2)CCC(=O)NCCC[C@@H](C(=O)N[C@@H](Cc2c[nH]c3ccccc23)C(=O)O)NC(=O)[C@@H]2C[C@H](N)CN2C(=O)[C@H](CCCNC(=N)N)NC(=O)[C@H](C(C)C)NC(=O)[C@H](CCCNC(=N)N)NC(=O)[C@H](CC(C)C)NC1=O [GPS13684] ({Benzoyl(4-guanidino)}-EMLRVR[Pro(4S-NH2)][Orn]W-OH; lactam 1-8)
[1]; human
  half-life: ≥ 300 min
[1]; mouse
  half-life: 26 ± 1 min
[1]; rat
  half-life: 135 ± 9 min

## CSCC[C@@H]1NC(=O)[C@@H](NC(=O)c2ccc(NC(=N)N)cc2)CCC(=O)NCCC[C@@H](C(=O)N[C@@H](Cc2c[nH]c3ccccc23)C(=O)O)NC(=O)[C@@H]2CCCN2C(=O)[C@H](CCCNC(=N)N)NC(=O)[C@H](Cc2ccc(O)cc2)NC(=O)[C@H](C(C)C)NC(=O)[C@H](CCCNC(=N)N)NC(=O)[C@H](CC(C)C)NC1=O [GPS13695] ({Benzoyl(4-guanidino)}-EMLRVYRP[Orn]W-OH; lactam 1-9)
[2]
  Ki: 0.13 nM

## CSCC[C@@H]1NC(=O)[C@@H](NC(=O)c2ccc(NC(=N)N)cc2)CCn2cc(nn2)CC[C@@H](C(=O)N[C@@H](Cc2c[nH]c3ccccc23)C(=O)O)NC(=O)[C@@H]2CCCN2C(=O)[C@H](CCCNC(=N)N)NC(=O)[C@H](C(C)C)NC(=O)[C@H](CCCNC(=N)N)NC(=O)[C@H](CC(C)C)NC1=O [GPS14517] ({Benzoyl(4-guanidino)}-[Aha]MLRVRP[Hpra]W-OH; triazole 1-8)
[2]
  Ki: 0.022 nM

## CSCC[C@@H]1NC(=O)[C@@H](NC(=O)c2ccc(NC(=N)N)cc2)Cc2cn(nn2)CCC[C@@H](C(=O)N[C@@H](Cc2c[nH]c3ccccc23)C(=O)O)NC(=O)[C@@H]2CCCN2C(=O)[C@H](CCCNC(=N)N)NC(=O)[C@H](C(C)C)NC(=O)[C@H](CCCNC(=N)N)NC(=O)[C@H](CC(C)C)NC1=O [GPS14518] ({Benzoyl(4-guanidino)}-[Pra]MLRVRP[Orn(N3)]W-OH; triazole 1-8)
[2]
  Ki: 0.027 nM

## CSCC[C@@H]1NC(=O)[C@@H](NC(=O)c2ccc(NC(=N)N)cc2)CCCn2cc(nn2)C[C@@H](C(=O)N[C@@H](Cc2c[nH]c3ccccc23)C(=O)O)NC(=O)[C@@H]2CCCN2C(=O)[C@H](CCCNC(=N)N)NC(=O)[C@H](C(C)C)NC(=O)[C@H](CCCNC(=N)N)NC(=O)[C@H](CC(C)C)NC1=O [GPS14519] ({Benzoyl(4-guanidino)}-[Orn(N3)]MLRVRP[Pra]W-OH; triazole 1-8)
[2]
  Ki: 0.43 nM

## GPS11373: S-S bridge: Gua-Cys-Met-Leu-Arg-Val-Arg-Pro-Cys-Trp (Gua-CMLRVRPCW; disulfide 1-8 (inferred))
[3]
  binding affinity constant: 100 nM

## Gua-Glu-Ethionine-Leu-Arg-Val-Arg-Pro-Orn-Trp
[4]
  not cleaved: not metabolized at all, 100% of the initial dose found at 300 (5 h)

## Gua-Glu-Met-Leu-Arg-Val-Arg-4-NH2-Pro-Orn-Trp
[4]
  not cleaved: not metabolized at all, 100% of the initial dose found at 300 (5 h)

## Gua-Glu-Met-Leu-Arg-Val-Arg-Pro-Orn-Trp
[4]
  not cleaved: not metabolized at all, 100% of the initial dose found at 300 (5 h)
